Test results as given in patent US8349878B2 (Laboratorios del Dr. Esteve, S.A., priority 2006, dated 2013).
Where a name gives a salt, the structure may show the parent alone. Read-outs that look alike come from different tables or passages of the source.

Target: T1, σ1-receptor (Cavia porcellus, UniProt Q60492)
T1 construct: guinea pig brains were homogenized; from tissue; host or cells: guinea pig brain membranes
Experiment: Sigma-1 receptor binding assay, [3H](+)-pentazocine displacement in guinea pig brain membranes
Details: for inhibition at 0.01 µM: read-out: Sigma-1 Inhibition percent (0.01 μM); for inhibition at 0.1 µM: read-out: Sigma-1 Inhibition percent (0.1 μM)
Experimental: The following protocol was followed:
In brief, guinea pig brains were homogenized in 10 vols. (w/v) of Tris-HCl 50 mM 0.32 M sucrose, pH 7.4, with a Kinematica Polytron PT 3000 at 15000 r.p.m. for 30 s. The homogenate was centrifuged at 1000 g for 10 min at 4° C. and the supernatants collected and centrifuged again at 48000 g for 15 min at 4° C. The pellet was resuspended in 10 volumes of Tris-HCl buffer (50 mM, pH 7.4), incubated at 37° C. for 30 min, and centrifuged at 48000 g for 20 min at 4° C. Following this, the pellet was resuspended in fresh Tris-HCl buffer (50 mM, pH 7.4) and stored on ice until use.
Each assay tube contained 10 μL of [^3H](+)-pentazocine (final concentration of 0.5 nM), 900 μL of the tissue suspension to a final assay volume of 1 mL and a final tissue concentration of approximately 30 mg tissue net weight/mL. Non-specific binding was defined by addition of a final concentration of 1 μM haloperidol. […] Filters were then washed with four times with 4 mL of cold Tris-HCl buffer (50 mM, pH 7.4). Following addition of scintillation cocktail, the samples were allowed to equilibrate overnight.

[1] = [3H](+)-pentazocine 0.5 nM, guinea pig brain membranes, read-out: Sigma-1 Ki (nm) Displ. 10^−7 M (10^−8 M)
[2] = compound at 0.01 μM, [3H](+)-pentazocine 0.5 nM, guinea pig brain membranes
[3] = compound at 0.1 μM, [3H](+)-pentazocine 0.5 nM, guinea pig brain membranes

T1 sequence (Q60492 whole entry): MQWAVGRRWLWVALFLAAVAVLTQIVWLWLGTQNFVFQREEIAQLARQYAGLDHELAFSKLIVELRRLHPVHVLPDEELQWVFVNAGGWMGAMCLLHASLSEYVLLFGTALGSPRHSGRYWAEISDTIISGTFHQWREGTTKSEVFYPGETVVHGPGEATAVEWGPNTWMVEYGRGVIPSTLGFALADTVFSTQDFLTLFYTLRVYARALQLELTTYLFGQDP

| SMILES | Ki [1] [nM] | inhibition at 0.01 µM [2] [%] | inhibition at 0.1 µM [3] [%] | Ki [nM] | inhibition at 0.01 µM [%] | inhibition at 0.1 µM [%] |
| --- | --- | --- | --- | --- | --- | --- |
| Cc1nc(SCCN2CCOCC2)nn1-c1ccc(Cl)c(Cl)c1 [compound 1, oxalate] | 1.1 | 102 | 107 |  |  |  |
| Cc1nc(SCCN2CCCCC2)nn1-c1ccc(Cl)c(Cl)c1 [compound 2, 1-[2-(3,4-dichlorophenyl)-5-methyl-1H-1.2.4-triazole-3-yl-thioethyl]piperidine oxalate] | 0.8 | 105 | 109 |  |  |  |
| Cc1nc(SCCN2CCCC2)nn1-c1ccc(Cl)c(Cl)c1 [compound 3, oxalate] | 1.4 | 103 | 106 |  |  |  |
| Cc1nc(SCCN(C(C)C)C(C)C)nn1-c1ccc(Cl)c(Cl)c1 [compound 4, oxalate] |  |  |  | 1.1 | 105 | 109 |
| CCN(CC)CCSc1nc(C)n(-c2ccc(Cl)c(Cl)c2)n1 [compound 5, 2-(1-(3,4-dichlorophenyl)-5-methyl-1H-1,2,4-triazole-3-yl-thio]-N,N-diethyl ethanamine oxalate] | 1.1 | 104 | 109 |  |  |  |
| Cc1nc(SCCN2CCCCCC2)nn1-c1ccc(Cl)c(Cl)c1 [compound 6, 1-[2-(1-(3,4-dichlorophenyl)-5-methyl-1H-1,2,4-triazol-3-yl-thio)ethyl]azepane oxalate] |  | 90.6 | 99.2 |  |  |  |
| Cc1nc(SCCCN2CCOCC2)nn1-c1ccc(Cl)c(Cl)c1 [compound 7, 4-[3-(1-(3,4-Dichlorophenyl)-5-methyl-1H-1,2,4-triazol-3-ylthio)propyl]morpholine oxalate] | 8.2 | 67.8 | 85.5 |  |  |  |
| Cc1nc(SCCCN2CCCC2)nn1-c1ccc(Cl)c(Cl)c1 [compound 8, 1-[3-(1-(3,4-dichlorophenyl)-5-methyl-1H-1,2,4-triazol-3-yl-thio)propyl]-4-pyrrolidine oxalate] | 2.1 | 57.4 | 82.5 |  |  |  |
| Cc1nc(SCCCN2CCC(c3ccccc3)CC2)nn1-c1ccc(Cl)c(Cl)c1 [compound 9, 1-[3-(1-(3,4-dichlorophenyl)-5-methyl-1H-1,2,4-triazol-3-ylthio)propyl]-4-phenylpiperidine oxalate] | 9 | 74.2 | 89 |  |  |  |
| Cc1nc(SCCCCN2CCC(c3ccccc3)CC2)nn1-c1ccc(Cl)c(Cl)c1 [compound 10, 1-[4-(1-(3,4-dichlorophenyl)-5-methyl-1H-1,2,4-triazol-3-yl-thio)butyl]-4-phenylpiperidine oxalate] |  | 27.3 | 88.1 |  |  |  |
| Cc1nc(SCCCCN2CCOCC2)nn1-c1ccc(Cl)c(Cl)c1 [compound 11, 4-[4-(1-(3,4-dichlorophenyl)-5-methyl-1H-1,2,4-triazol-3-yl-thio)butyl]morpholine oxalate] |  | 14.5 | 66.9 |  |  |  |
| Cc1nc(SCCCCCN2CCCCC2)nn1-c1ccc(Cl)c(Cl)c1 [compound 12, 1-[5-(1-(3,4-dichlorophenyl)-5-methyl-1H-1,2,4-triazol-3-ylthio)pentyl]piperidine oxalate] |  | 52.1 | 82.8 |  |  |  |
| Cc1nc(SCCCCCN2CCOCC2)nn1-c1ccc(Cl)c(Cl)c1 [compound 13, 4-[5-(1-(3,4-Dichlorophenyl)-5-methyl-1H-1,2,4-triazol-3-ylthio)pentyl]morpholine oxalate] |  | 4.3 | 58.2 |  |  |  |
| Cc1nc(SCCCCCN2CCCC2)nn1-c1ccc(Cl)c(Cl)c1 [compound 14, 1-[5-(1-(3,4-dichlorophenyl)-5-methyl-1H-1,2,4-triazol-3-ylthio)pentyl]pyrrolidine oxalate] |  | 6 | 52.5 |  |  |  |
| Cc1nc([S+]([O-])CCN2CCCC2)nn1-c1ccc(Cl)c(Cl)c1 (stereo not shown) [compound 15, 1-[2-(1-(3,4-dichlorophenyl)-5-methyl-1H-1,2,4-triazol-3-yl-sulfinyl)ethyl]pyrrolidine] | 7 | 47.2 | 88.9 |  |  |  |
| Cc1nc([S+]([O-])CCN2CCOCC2)nn1-c1ccc(Cl)c(Cl)c1 (stereo not shown) [compound 16, 4-[2-(1-(3,4-dichlorophenyl)-5-methyl-1H-1,2,4-triazol-3-yl-sulfinyl)-ethyl]-morpholine] |  | 28.6 | 42 |  |  |  |
| Cc1nc([S+]([O-])CCN(C(C)C)C(C)C)nn1-c1ccc(Cl)c(Cl)c1 (stereo not shown) [compound 17] |  |  |  | 4 | 62.3 | 93.9 |
| Cc1nc([S+]([O-])CCCCN2CCC(c3ccccc3)CC2)nn1-c1ccc(Cl)c(Cl)c1 (stereo not shown) [compound 18, 1-[4-(1-(3,4-Dichlorophenyl)-5-methyl-1H-1,2,4-triazol-3-ylsulfinyl)butyl]-4-phenylpiperidine] |  | -39.5 | 37.2 |  |  |  |
| Cc1nc(S(=O)(=O)CCN2CCCC2)nn1-c1ccc(Cl)c(Cl)c1 [compound 19] | 2.2 | 71.8 | 96.4 |  |  |  |
| CCN(CC)CCS(=O)(=O)c1nc(C)n(-c2ccc(Cl)c(Cl)c2)n1 [compound 20, 2-[1-(3,4-Dichlorophenyl)-5-methyl-1H-1,2,4-triazol-3-ylsulfonyl]-N,N-diethylethanamine] | 16.7 | 51.2 | 82.1 |  |  |  |

The next lines start with results.

| Ki [1] [nM] | inhibition at 0.01 µM [2] [%] | inhibition at 0.1 µM [3] [%] | SMILES | Ki [nM] | inhibition at 0.01 µM [%] | inhibition at 0.1 µM [%] |
| --- | --- | --- | --- | --- | --- | --- |
|  | 8.3 | 20.5 | Cc1nc(S(=O)(=O)CCCCN2CCOCC2)nn1-c1ccc(Cl)c(Cl)c1 [compound 21, 4-[4-(1-(3,4-Dichlorophenyl)-5-methyl-1H-1,2,4-triazol-3-yl-sulfonyl)-butyl]morpholine] |  |  |  |
| 3.1 ± 1.6 | 54.3 | 94.8 | Cc1nc(OCCN2CCCCC2)nn1-c1ccc(Cl)c(Cl)c1 [compound 22] |  |  |  |
|  | 32.2 | 85 | CCN(CC)CCOc1nc(C)n(-c2ccc(Cl)c(Cl)c2)n1 [compound 23, 2-[1-(3,4-Dichlorophenyl)-5-methyl-1H-1,2,4-triazol-3-yloxy]-N,N-diethylethanamine] |  |  |  |
|  | 39.5 | 91.8 | Cc1nc(OCCN2CCCC2)nn1-c1ccc(Cl)c(Cl)c1 [compound 24, 1-[2-(1-(3,4-Dichlorophenyl)-5-methyl-1H-1,2,4-triazol-3-yloxy)ethyl]pyrrolidine] |  |  |  |
|  | 33.8 | 83.8 | Cc1nc(OCCN2CCOCC2)nn1-c1ccc(Cl)c(Cl)c1 [compound 25, 4-[2-(1-(3,4-Dichlorophenyl)-5-methyl-1H-1,2,4-triazol-3-yloxy)ethyl]morpholine oxalate] |  |  |  |
|  | 7.3 | 15.2 | CCN(CC)CCOc1nc(C)n(-c2ccccc2)n1 [compound 26, 2-(5-methyl-1-phenyl-1H-1,2,4-triazol-3-yloxy)-N,N-diethyl ethanamine] |  |  |  |
|  | 8.1 | 30.4 | Cc1nc(OCCN2CCCC2)nn1-c1ccccc1 [compound 27, 1-[2-(5-methyl-1-phenyl-1H-1,2,4-triazol-3-yloxy)ethyl]pyrrolidine] |  |  |  |
|  | -20.9 | -3.4 | Cc1nc(OCCN2CCOCC2)nn1-c1ccccc1 [compound 28, 4-[2-(5-methyl-1-phenyl-1H-1,2,4-triazol-3-yloxy)ethyl]morpholine] |  |  |  |
|  | 5.8 | 46.1 | Cc1nc(OCCN2CCCCC2)nn1-c1ccccc1 [compound 29, 1-[2-(5-methyl-1-phenyl-1H-1,2,4-triazol-3-yloxy)ethyl]piperidine] |  |  |  |
|  | -15.1 | 18.3 | Cc1nc(OCCCCN2CCOCC2)nn1-c1ccccc1 [compound 30, 4-[4-(5-methyl-1-phenyl-1H-1,2,4-triazol-3-yloxy)butyl]morpholine] |  |  |  |
